In patent US6969712B2, “Benzimidazole derivatives” (Banyu Pharmaceutical Co., Ltd., priority 2000, dated 2005):
Where a name gives a salt, the structure may show the parent alone.

What was measured:
[1] = target: T1, nociceptin receptor ORL1 (Homo sapiens, UniProt P41146); test: Nociceptin receptor binding inhibition assay; conditions: inhibition of 50 pM [125I]Tyr14-Nociceptin binding to CHO/ORL1 cell membrane, SPA beads, 37° C., 60 minutes; read-out: IC50 value, nociceptin receptor binding inhibition action
T1 construct: expressed in transfected cells
T1 sequence (P41146 whole entry): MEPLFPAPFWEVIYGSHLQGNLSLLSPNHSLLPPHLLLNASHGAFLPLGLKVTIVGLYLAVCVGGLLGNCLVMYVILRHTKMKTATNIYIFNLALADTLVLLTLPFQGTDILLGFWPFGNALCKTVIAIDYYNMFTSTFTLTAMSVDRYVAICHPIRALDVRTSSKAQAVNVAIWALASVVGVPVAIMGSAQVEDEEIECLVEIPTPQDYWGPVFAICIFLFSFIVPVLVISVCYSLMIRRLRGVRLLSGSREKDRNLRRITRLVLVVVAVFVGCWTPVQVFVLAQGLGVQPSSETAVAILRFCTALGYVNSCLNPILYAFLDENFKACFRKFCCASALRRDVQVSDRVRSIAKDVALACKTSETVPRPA
Procedure: cDNA which codes a human nociceptin receptor gene (accession No.X77130) was cloned into an expression vector pCR3 (Invitrogen) to prepare pCR3/ORL1. Next, pCR3/ORL1 was transfected in CHO cells using a transfectam (Nippongene) following the directions in the manual appended to the reagent to obtain a stable expression strain (CHO/ORL1 cells) having resistance against 1 mg/ml concentration G418. A membrane fraction (a precipitate fraction obtained by an hour's centrifuge at 100,000 G of the supernatant resulting from 15 minutes' certrifuge at 10,000 G) was prepared from this stable expression strain to carry out a receptor binding assay.
Eleven (11) μg of the membrane, 50 pM [^125I] Tyr^14-Nociceptin (Amersham Pharmacia Biotech) (specific activity 2000 Ci/mmol), 1 mg Wheatgerm agglutinin SPA beads (PVT based; Amersham Pharmacia Biotech) and a test compound were suspended in an NC buffer (50 mM Hepes, 10 mM sodium chloride, 1 mM magnesium chloride, 2.5 mM calcium chloride, 0.1% BSA, 0.025% bacitracin, pH 7.4) and incubated at 37° C. for 60 minutes, and then the radioactivity was determined with Top Count (Packard). The binding activity to the nociceptin receptor was expressed by the 50% inhibition concentration (IC50 value) which was calculated from the inhibition activity to binding to ORL1 receptor of [^125I] Tyr^14-Nociceptin by the compounds of the present invention at various concentrations.

[2] = target: T1, nociceptin receptor ORL1; test: Antagonism against nociceptin-elicited G protein activation (GTPγ[35S] binding); format: biochemical; conditions: GTPγ[35S] binding inhibition, CHO/ORL1 cell membrane, 50 nM nociceptin, 25° C., 150 minutes
Procedure: CHO cells which stably expressed a nociceptin receptor ORL1 were used to investigate the action of tested compounds against nociceptin-elicited G protein activation. A membrane prepared from the CHO/ORL1 cell, 50 nM nociceptin, 200 pM GTPγ[^35S](NEN), 1.5 mg Wheatgerm agglutinin SPA beads (PVT based; Amersham Pharmacia Biotech) and each of the tested compounds were mixed in a GDP buffer (20 mM Hepes, 100 mM sodium chloride, 10 mM magnesium chloride, 1 mM EDTA, 5 μM GDP, pH 7.4) and incubated at 25° C. for 150 minutes, and then the radioactivity was determined. The antagonism against nociceptin-elicited G protein activation was shown by the 50% inhibition concentration (IC50 value) which was calculated from GTP γ [^35S] binding inhibition activity of the compounds of the present invention at various concentrations. From the result it can be understood that the compounds of the invention have antagonism against nociceptin-elicited G protein activation via ORL1 receptor.

| Compound | IC50 [1] | IC50 [2] |
| --- | --- | --- |
| CCC(CC)Sc1nc2cc(Cl)c(N3CCNCC3)cc2[nH]1 [Example 1, 5-chloro-2-[(1-ethylpropyl)sulfanyl]-6-(piperazin-1-yl) benzimidazole dihydrochloride] | 2.1 nM | 9.1 nM |
| CC(CC(C)(C)C)Sc1nc2cc(N3CCNCC3)c(Cl)cc2[nH]1 (centres unmarked) [Example 26, 5-chloro-6-(piperazin-1-yl)-2-[(1,3,3-trimethylbutyl)-sulfanyl]benzimidazole dihydrochloride] | 1.3 nM | 5.3 nM |
| CCC(CC)Sc1nc2cc(Cl)c(N3CCN(CCO)CC3)cc2[nH]1 [Example 89, 5-chloro-2-[(1-ethylpropyl)sulfanyl]-6-[4-(2-hydroxyethyl)piperazin-1-yl]benzimidazole dihydrochloride] | 6.5 nM | 6.8 nM |
| CC(C)(CN1CCOCC1)Sc1nc2cc(N3CCN(CCO)CC3)c(Cl)cc2[nH]1 [Example 101, 5-chloro-2-[(1,1-dimethyl-2-morpholinoethyl)sulfanyl]-6-[4-(2-hydroxyethyl)piperazin-1-yl]benzimidazole trihydrochloride] | 9.2 nM | 8 nM |
| Clc1cc2[nH]c(SCC3CCCCC3)nc2cc1N1CCN(CC2CC2)CC1 [Example 102, 5-chloro-2-[(cyclohexylmethyl)sulfanyl]-6-[4-(cyclopropylmethyl)piperazin-1-yl]benzimidazole] | 3.5 nM |  |
| CC1(Sc2nc3c(F)c(N4CCN(CCO)CC4)c(Cl)cc3[nH]2)CCCC1 [Example 142, 5-chloro-7-fluoro-6-[4-(2-hydroxyethyl)piperazin-1-yl]-2-[(1-methylcyclopentyl)sulfanyl]benzimidazole] | 0.95 nM | 0.57 nM |
| CCC(CC)COc1nc2cc(N3CCNCC3)c(Cl)cc2[nH]1 [Referential Example 1, 5-chloro-2-[(2-ethylbutyl)oxy]-6-(piperazin-1-yl)benzimidazole dihydrochloride] | 7 nM | 180 nM |
| CCCC(CC)Nc1nc2cc(N3CCNCC3)c(Cl)cc2[nH]1 (centres unmarked) [Referential Example 13, 5-chloro-2-[(1-ethylbutyl)amino]-6-(piperazin-1-yl)-benzimidazole dihydrochloride] | 430 nM |  |
